The subject of series [1] is COc1c(O)c(C)c(C/C=C(\C)CC/C=C(\C)CC/C=C(\C)CC/C=C(\C)CC/C=C(\C)CC/C=C(\C)CC/C=C(\C)CC/C=C(\C)CC/C=C(\C)CCC=C(C)C)c(O)c1OC. The series can be described thus: purified protein. To be noted: 65 mM MOPS pH 7.5, 300 uM NADH, excess NDH-2, Q10 concentration in the lipid phase.
In series [2] the target is T1, C. auris AOX (Candidozyma auris, UniProt A0A0L0NPQ3).
T1 construct: twin-strep tag (pET15b.TS, pTS.CaAOX) kept; from E. coli FN102; in self-assembled proteoliposomes
The series can be described thus: NADH oxidation at […] nm in NDH-2/AOX proteoliposomes, dose-response. The format is biochemical.

In series [3] the target is T2, C. albicans AOX2 (Candida albicans, UniProt Q9UV71).
T2 construct: twin-strep tag (pET15b.TS, pTS.CalbAOX2) kept; from E. coli FN102; in self-assembled proteoliposomes
T2 sequence (Q9UV71 27-365): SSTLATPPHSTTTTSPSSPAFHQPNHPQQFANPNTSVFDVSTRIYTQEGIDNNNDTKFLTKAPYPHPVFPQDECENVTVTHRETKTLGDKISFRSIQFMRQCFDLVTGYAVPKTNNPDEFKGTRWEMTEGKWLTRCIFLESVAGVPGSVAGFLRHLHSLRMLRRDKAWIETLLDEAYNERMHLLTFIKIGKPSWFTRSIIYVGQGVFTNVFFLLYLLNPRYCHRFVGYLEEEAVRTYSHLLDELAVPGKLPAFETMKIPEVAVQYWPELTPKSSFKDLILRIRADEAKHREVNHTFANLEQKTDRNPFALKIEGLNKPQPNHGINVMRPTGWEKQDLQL
Described as above. The class given is biochemical.

In another series the target is T3, NDH-2 (Caldalkalibacillus thermarum, UniProt F5L3B8).
T3 construct: gene CathTA2_0279; His-tagged, from E. coli C41 (plasmid pTRCndh2); predicted mass 44 kDa
T3 sequence (F5L3B8 1-399): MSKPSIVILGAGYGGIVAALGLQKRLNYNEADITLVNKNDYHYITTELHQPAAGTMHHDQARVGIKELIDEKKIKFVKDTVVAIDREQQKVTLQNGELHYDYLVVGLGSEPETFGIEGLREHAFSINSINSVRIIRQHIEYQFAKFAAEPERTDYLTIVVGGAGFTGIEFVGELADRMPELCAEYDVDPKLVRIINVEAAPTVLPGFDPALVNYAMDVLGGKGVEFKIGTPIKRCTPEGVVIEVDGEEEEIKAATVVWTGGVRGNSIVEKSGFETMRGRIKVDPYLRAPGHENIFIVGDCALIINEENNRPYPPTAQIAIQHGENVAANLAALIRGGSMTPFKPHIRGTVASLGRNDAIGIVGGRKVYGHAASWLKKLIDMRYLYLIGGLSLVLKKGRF
As to the kind of experiment: NADH oxidation at […] nm. The format is biochemical. To be noted: 50 mM MOPS pH 7.5, 250 uM Q1, 300 uM NADH.

In series [4] the target is T1, C. auris AOX. The series can be described thus: oxygen consumption of NDH-2/AOX proteoliposomes (Oroboros oxygraph), dose-response. The format is biochemical.
Series [5] has as its target T2, C. albicans AOX2. The series is described as above. The class given is biochemical.
Substrate in the series “purified protein”: COc1c(O)c(C)c(C/C=C(\C)CC/C=C(\C)CC/C=C(\C)CC/C=C(\C)CC/C=C(\C)CC/C=C(\C)CC/C=C(\C)CC/C=C(\C)CC/C=C(\C)CCC=C(C)C)c(O)c1OC
As to the kind of experiment: purified protein. The class given is biochemical, Candida albicans. The settings on record: 65 mM MOPS pH 7.5, 300 uM NADH, excess NDH-2, Q10 concentration in the lipid phase.

T1 sequence (A0A0L0NPQ3 25-333 limits assumed): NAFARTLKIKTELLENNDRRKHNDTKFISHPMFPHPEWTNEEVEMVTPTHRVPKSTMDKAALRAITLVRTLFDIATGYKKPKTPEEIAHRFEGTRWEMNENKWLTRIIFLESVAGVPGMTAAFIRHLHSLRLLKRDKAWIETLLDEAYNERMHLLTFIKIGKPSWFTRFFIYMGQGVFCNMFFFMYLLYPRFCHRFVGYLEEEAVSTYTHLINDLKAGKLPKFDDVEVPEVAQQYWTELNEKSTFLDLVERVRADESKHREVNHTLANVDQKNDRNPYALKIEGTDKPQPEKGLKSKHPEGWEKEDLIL

As for C. auris AOX (Candidozyma auris), in series [1], the Km (in general, the concentration of substrate that gives half-maximal velocity) is reported as 7.3 ± 1.4 mM; the catalytic constant (kcat) – broadly, the number of substrate molecules converted per active site and unit of time at saturation – is 108 ± 3 s⁻¹.
Take `C/C(=C\Cc1c(O)c(Cl)c(C)c(C=O)c1O)CC/C=C(\C)[C@@H]1CC(=O)C(C)(C)O1` [AF, Ascofuranone]: the IC50 – broadly, the point on the concentration scale where inhibition reaches its midpoint – at C. auris AOX [2] worked out at 0.129 ± 0.018 µM; against C. albicans AOX2 [3], 0.213 ± 0.027 µM.
With `NC(=O)C1=CN([C@@H]2O[C@H](COP(=O)(O)OP(=O)(O)OC[C@H]3O[C@@H](n4cnc5c(N)ncnc54)[C@H](O)[C@@H]3O)[C@@H](O)[C@H]2O)C=CC1` [NADH], at NDH-2, the “NADH oxidation at 340 nm” value is listed as “measured spectrophotometrically by measuring the oxidation of NADH at A340 nm”.
With `CC(C)=CCC/C(C)=C/Cc1c(O)c(Cl)c(C)c(C=O)c1O` [CB, colletochlorin B], the IC50 on C. auris AOX [2] was 0.055 ± 0.01 µM; against C. albicans AOX2 [3], 0.053 ± 0.016 µM.
On to `O=C(NO)c1ccccc1O` [SHAM], for which the IC50 against C. auris AOX [4] was 5000 ± 600 µM; against C. albicans AOX2 [5], 3500 ± 700 µM.

B1: C. albicans AOX2 (Candida albicans) (protein)
chain: T2 sequence (Q9UV71 27-365)
notes: twin-strep tag (pET15b.TS, pTS.CalbAOX2) kept; from E. coli FN102; in self-assembled proteoliposomes
As to B1, in “purified protein”, the Km is listed as 6.3 ± 1.3 mM and the kcat amounted to 404 ± 51 s⁻¹.

The record behind these values is article PMC8292455, “Kinetic characterisation and inhibitor sensitivity of Candida albicans and Candida auris recombinant AOX expressed in a self-assembled proteoliposome system” (Scientific Reports, 2021).
